Results from patent US8664261B2, “Organic compounds having cooling properties” (Givaudan S.A., priority 2009, dated 2014).

Key:
panelists [1] = test: Cooling intensity: panelists taste aqueous solutions, compared with menthol at 2 ppm; type: in vivo; settings: aqueous solution with cooling intensity similar to or slightly higher than a solution of menthol at 2 ppm; tasted by small group of panelists
panelists [2] = test: Application in toothpaste: duration of perceived cooling sensation after brushing; type: in vivo; settings: 0.10 g of 10% ethanol solution of compound + 0.03 g saccharin in 9.96 g opaque toothgel base; teeth brushed, mouth rinsed with water
Procedure: 0.10 g of a 10% solution in ethanol of a compound of formula (I) listed in Table 4 below and 0.03 g saccharin were mixed in 9.96 g of an opaque toothgel base. A piece of the thus prepared toothpaste was put on a toothbrush and a panelist's teeth were brushed. The mouth was rinsed with water and the water spat out. A long lasting cooling sensation was felt by the panelist in all areas of the mouth. The cooling sensation was perceived for up to 60 min (see Table 5).

SMILES | Concentration (panelists [1]) [ppm] | Perceived cooling sensation (panelists [2]) [min]
CC(C)[C@@H]1CC[C@@H](C)C[C@H]1C(=O)NCCc1ccccn1 [(1R,2S,5R)-2-isopropyl-5-methyl-N-(2-(pyridin-2-yl)ethyl)cyclohexanecarboxamide, reference compound] | 0.02 | 
CC(C)[C@@H]1CC[C@@H](C)C[C@H]1C(=O)Nc1ccc(CC#N)cc1 [(1R,2S,5R)-N-(4-(cyanomethyl)phenyl)-2-isopropyl-5-methylcyclohexanecarboxamide, reference compound] | 0.2 | 
CC(Cc1cccnc1)NC(=O)[C@@H]1C[C@H](C)CC[C@H]1C(C)C (stereo partly drawn) [Example 1, (1R,2S,5R)-2-isopropyl-5-methyl-N-(1-(pyridin-3-yl)propan-2-yl)cyclohexanecarboxamide] | 0.01 | 30
CC(C)[C@@H]1CC[C@@H](C)C[C@H]1C(=O)NCCc1ncc[nH]1 [Example 2H, (1R,2S,5R)-N-(2-(1H-imidazol-2-yl)ethyl)-2-isopropyl-5-methlycyclohexane-carboxamide] | 0.2 | 40
Cc1[nH]c2ccccc2c1CCNC(=O)[C@@H]1C[C@H](C)CC[C@H]1C(C)C [Example 2I, (1R,2S,5R)-2-isopropyl-5-methyl-N-(2-(2-methyl-1H-indol-3-yl)ethyl)cyclohexane-carboxamide] |  | 60
CC(C)[C@@H]1CC[C@@H](C)C[C@H]1C(=O)NCCn1ccc2ccccc21 [Example 2J, (1R,2S,5R)-N-(2-(1H-indol-1-yl)ethyl)-2-isopropyl-5-methylcyclohexanecarboxamide] | 0.002 | 
CC(Cc1ccsc1)NC(=O)[C@@H]1C[C@H](C)CC[C@H]1C(C)C (stereo partly drawn) [Example 2M, (1R,2S,5R)-2-isopropyl-5-methyl-N-(1-(thiophen-3-yl)propan-2-yl)cyclohexane-carboxamide] | 0.002 | 40
CC1CCC(C(C)C)C(O)C1 (stereo not drawn) [I-Menthol, reference compound] | 2.0 | 
CCNC(=O)C1CC(C)CCC1C(C)C (stereo not drawn) [N-ethyl p-menthanecarboxamide, reference compound] | 1.5 | 
